The target of one data set is T1, 15-LO (Homo sapiens, UniProt P16050).
T1 construct: endogenous in cells; host or cells: eosinophils in human PMNL preparations
T1 sequence (P16050 1-662): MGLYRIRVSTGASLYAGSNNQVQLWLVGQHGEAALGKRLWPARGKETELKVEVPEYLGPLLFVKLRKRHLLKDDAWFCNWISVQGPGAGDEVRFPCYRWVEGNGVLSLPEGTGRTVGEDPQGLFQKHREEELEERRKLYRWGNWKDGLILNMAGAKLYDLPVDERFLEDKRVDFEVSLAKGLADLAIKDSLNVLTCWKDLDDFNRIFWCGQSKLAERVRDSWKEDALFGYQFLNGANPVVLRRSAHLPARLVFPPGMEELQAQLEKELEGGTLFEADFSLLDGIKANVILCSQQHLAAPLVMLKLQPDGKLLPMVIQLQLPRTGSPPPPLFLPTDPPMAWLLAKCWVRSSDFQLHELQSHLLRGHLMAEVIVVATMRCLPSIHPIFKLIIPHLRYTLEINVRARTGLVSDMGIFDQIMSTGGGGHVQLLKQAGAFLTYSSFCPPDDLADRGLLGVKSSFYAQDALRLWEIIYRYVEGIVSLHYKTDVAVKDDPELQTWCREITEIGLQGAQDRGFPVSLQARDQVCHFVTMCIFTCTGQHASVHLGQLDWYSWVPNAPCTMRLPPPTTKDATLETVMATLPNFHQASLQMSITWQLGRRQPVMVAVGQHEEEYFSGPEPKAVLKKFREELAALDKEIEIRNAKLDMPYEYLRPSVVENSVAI
The data set is described as follows: 15-HETE formation in intact PMNL preparations, A23187 + 20 µM AA. Particulars: 15 min preincubation, A23187 2.5 µM + 20 µM AA, n.i. = no inhibition observed; for PMNL (20 µM AA) 15-HETE IC50: intact PMNL; for IC50: PMNL (20 µM AA) 15-HETE IC50, intact PMNL. The data set is classed as cell-based. How it is done:
Buffy coats from different donors of different blood types were commercially obtained from DRK Blutspendedienst Baden-Württemberg Institute Frankfurt. Donors have given their written consent. […] Following separation, the supernatant was transferred very gently to new 50-ml tubes containing lymphocyte separation medium (LSM) and centrifuged for 10 min at 800 ×g at RT with the centrifuge brake turned off. Afterwards, the supernatant was decanted carefully to discard the platelets and monocytes. The PMNL were washed with 1× PBS before the residual erythrocytes were lysed in two cycles: the cell pellet was resuspended with 10 ml H2O and vortexed for 45 s, and lysis was stopped with 40 ml 1 × PBS. After 10-min centrifugation at 200 ×g at RT, the cycle was repeated once. The supernatant was aspirated, the cell pellet resuspended in 5 ml PBS/glucose and initially separated PMNL preparations with different blood types were finally pooled to gain a sufficient number of cells. […] The enzyme was diluted in PBS/EDTA/ATP, transferred into 5-ml glass tubes, and stored on ice. […] The reaction was stopped by placing the glass tubes on ice. The supernatants were transferred to 1.5 ml reaction tubes and stored at −80°C before LC-MS (liquid chromatography and mass spectrometry) analysis of LTB4 and HETEs as described in 2.6 at the Institute of Pharmacology, Goethe University, University Hospital, Germany. The lipid mediators LTB4, hydroxyeicosatetraenoic acids, 5(S)-HETE, 12(S)-HETE, 15(S)-HETE and 20-HETE were analyzed using liquid chromatography tandem-mass spectroscopy (LC-MS/MS). The LC-MS/MS system consisted of a 5500 QTrap mass spectrometer (Sciex, Darmstadt, Germany), operating in negative ESI mode, an Agilent 1200 HPLC system (Agilent, Waldbronn, Germany) and an HTC Pal autosampler (Chromtech, Idstein, Germany). Sample extraction of LTB4 and HETEs were performed using liquid-liquid extraction: 200 µl of the sample were gently mixed with 20 µl of methanol and 20 µl of internal standard solution and extracted twice with 600 µl ethyl acetate. […] Working solutions of all analytes were prepared in methanol containing 0.1% BHT. The calibration standards were prepared by further dilution of the working standards. […] The residues were reconstituted in 50 µl of methanol:water:BHT (50:50:10^−4, v/v/v) prior to injection into the LC-MS/MS system. Chromatographic separation was achieved using a Gemini NX C18 column (150 mm × 2 mm ID, 5 µm, Phenomenex, Aschaffenburg, Germany) with a precolumn of the same material. A linear gradient was employed at a flow rate of 0.5 ml/min and a total run time of 17.5 min. Mobile phases were A water:ammonia (100:0.05, v/v) and B acetonitrile:ammonia (100:0.05, v/v). […] All data were acquired using Analyst software v1.6.2 and quantitation was performed by MultiQuant software v3.0 (both Sciex, Darmstadt, Germany) using the internal standard method (isotope-dilution mass spectrometry). Calibration curves were calculated by linear regression with 1/x.

The next data set deals with PMNL. The data set is described as follows: WST-1 viability assay in PMNL. The data set is classed as cell-based, human. As to conditions: 20 µM, 2 h (data not shown). The procedure:
Cell viability was analyzed with the WST-1 assay based on the cleavage of the stable tetrazolium salt WST-1 by the mitochondrial reductase system. Cells were seeded in the appropriate densities in a clear 96-well plate and settled overnight at 37°C in 5% CO2. […] Cell viability was analyzed by adding 10 µl WST-1 solution (Roche, Basel, Switzerland) and subsequently incubating the cells at 37°C for another 30–40 min. Absorbance was measured at 450 nm with a control wavelength at 620 nm using a plate reader.
5-LO, the key enzyme in leukotriene biosynthesis, catalyzes the first steps in leukotriene formation from AA. Oxidation of AA by 5-LO leads to the formation of 5-hydroperoxyeicosatetraenoic acid (5-HPETE), which can further be converted to LTA4 or reduced to 5-HETE. In the next step, LTA4 is hydrolyzed by LTA4 hydrolase to produce LTB4. Moreover, 12- and 15-LO catalyze the formation of 12- and 15-H(P)ETE [12- and 15-hydro(per)oxyeicosatetraenoic acid]. Nitroalkylation of 5-LO cysteines 416 and 418 by NFA leads to enzyme inhibition and beneficial anti-inflammatory effects, whereas no impact has been observed on 12- and 15-LO so far ([Awwad et al., 2014]). 5-LO product formation of purified PMNL was triggered by incubation with 2.5 µM of the calcium ionophore A23187 in the presence of 20 µM AA. […] Shifting the nitro group from position 9 to 10, or rather, towards position 11 (18.11.11), led to a decreased impact on 15-LO product formation (Table 3). […] Therefore, 5-LO product formation of purified PMNL after treatment with A23187 was determined in absence of AA which should strongly increase the 5-LO-inhibitory potency of competitive inhibitors. However, IC50 values were similar under these conditions strengthening the hypothesis of NFA as presumably non-competitive 5-LO inhibitors. Using a WST-1 viability assay we assessed possible cytotoxic effects of the strongest 5-LO-inhibitory NFA derivatives in PMNL including 18.4.4, 18.5.5, 18.6.6, 18.7.7, 18.8.8, 18.8.9, 18.9.9, 18.9.10, 18.10.10, 20.9.9, and 22.9.9.
In general terms: Formazan colour is commonly taken as a measure of viable cells.

One may read the IC50 as the point on the concentration scale where inhibition reaches its midpoint.

“And” between values parts separate entries of the source, which are not always exact repeats. Equal values may be shown once.

On to `CCC=C(CCCCCCCC(=O)O)[N+](=O)[O-]` [12.9.9, 9-nitro-dodec-9-enoic acid], for which the “PMNL (20 µM AA) 15-HETE IC50” value on 15-LO is on record as “n.i”. Same read-out and setting: for `CCCCC=C(CCCCCCCC(=O)O)[N+](=O)[O-]` [14.9.9, 9-nitro-tetradec-9-enoic acid] the value was “n.i”; for `CCCCCCC=C(CCCCCCCC(=O)O)[N+](=O)[O-]` [16.9.9, 9-nitro-hexadec-9-enoic acid], “n.i”.

For `CCCCCCCCCCCCCC=C(CCC(=O)O)[N+](=O)[O-]` [18.4.4, 4-nitro-octadec-4-enoic acid], the IC50 on 15-LO worked out at 7.7 ± 1.2 µM. The “cytotoxic effects in PMNL (WST-1 viability)” value (shortened to “cytotoxic effects in PMNL”) with PMNL is listed as “failed to induce significant cytotoxic effects”.

On to `CCCCCCCCCCCCC=C(CCCC(=O)O)[N+](=O)[O-]` [18.5.5, 5-nitro-octadec-5-enoic acid], for which the half-maximal inhibitory concentration (IC50) on 15-LO came to 8.9 ± 1.2 µM. Further, the “cytotoxic effects in PMNL” value in the data set with PMNL is given as “failed to induce significant cytotoxic effects”. The corresponding values for `CCCCCCCCCCCC=C(CCCCC(=O)O)[N+](=O)[O-]` [18.6.6, 6-nitro-octadec-6-enoic acid] are 14.8 ± 1.1 µM and “failed to induce significant cytotoxic effects”. In the case of `CCCCCCCCCCCC(=CCCCCC(=O)O)[N+](=O)[O-]` [18.6.7, 7-nitro-octadec-6-enoic acid], the IC50 at 15-LO was 17.3 ± 1.1 µM. `CCCCCCCCCCC=C(CCCCCC(=O)O)[N+](=O)[O-]` [18.7.7, 7-nitro-octadec-7-enoic acid]: the IC50 at 15-LO was 7.6 ± 1.1 µM. Also, the “cytotoxic effects in PMNL” value in the data set with PMNL is recorded as “failed to induce significant cytotoxic effects”. The corresponding values for `CCCCCCCCCC=C(CCCCCCC(=O)O)[N+](=O)[O-]` [18.8.8, 8-nitro-octadec-8-enoic acid] are 16 ± 1.1 µM and “failed to induce significant cytotoxic effects”. For `CCCCCCCCCC(=CCCCCCCC(=O)O)[N+](=O)[O-]` [18.8.9, 9-nitro-octadec-8-enoic acid], the concentration for half-maximal inhibition (IC50) at 15-LO was 23.4 ± 1.3 µM. The “cytotoxic effects in PMNL” value in the data set on PMNL was “failed to induce significant cytotoxic effects”. Turning to `CCCCCCCCC=C(CCCCCCCC(=O)O)[N+](=O)[O-]` [18.9.9, 9-nitro-octadec-9-enoic acid], the IC50 on 15-LO was 17.6 µM and 20.4 µM. For the same compound, the “cytotoxic effects in PMNL” value in the data set on PMNL is recorded as “failed to induce significant cytotoxic effects”.

As for `CCCCCCCCC(=CCCCCCCCC(=O)O)[N+](=O)[O-]` [18.9.10, 10-nitro-octadec-9-enoic acid], the 50% inhibitory concentration (IC50) at 15-LO was found to be 20.5 ± 1.3 µM. The “cytotoxic effects in PMNL” value in the data set with PMNL was “failed to induce significant cytotoxic effects”. The corresponding values for `CCCCCCCC=C(CCCCCCCCC(=O)O)[N+](=O)[O-]` [18.10.10, 10-nitro-octadec-10-enoic acid] are 19.6 ± 1.1 µM and “failed to induce significant cytotoxic effects”. Regarding `CCCCCCC=C(CCCCCCCCCC(=O)O)[N+](=O)[O-]` [18.11.11, 11-nitro-octadec-11-enoic acid], the IC50 at 15-LO came to 26 ± 1.3 µM. As to `CCCCCCCCCCC=C(CCCCCCCC(=O)O)[N+](=O)[O-]` [20.9.9, 9-nitro-eicos-9-enoic acid], on 15-LO, the IC50 was 21.2 ± 1.1 µM. Further, in the data set with PMNL, the “cytotoxic effects in PMNL” value is given as “failed to induce significant cytotoxic effects”. Regarding `CCCCCCCC/C=C\CCCCCCCC(=O)O` [OA, oleic acid, reference compound], on 15-LO, the “PMNL (20 µM AA) 15-HETE IC50” value was “not affected and n.i”.

For the origin of these results see publication PMC8637440, “Structural Modifications Yield Novel Insights Into the Intriguing Pharmacodynamic Potential of Anti-inflammatory Nitro-Fatty Acids” (Frontiers in Pharmacology, 2021).
